The compounds below were run against EGFR (human) (UniProt P00533). Settings: hcc827.
EGFR (human), sequence (P00533 whole entry, looked up): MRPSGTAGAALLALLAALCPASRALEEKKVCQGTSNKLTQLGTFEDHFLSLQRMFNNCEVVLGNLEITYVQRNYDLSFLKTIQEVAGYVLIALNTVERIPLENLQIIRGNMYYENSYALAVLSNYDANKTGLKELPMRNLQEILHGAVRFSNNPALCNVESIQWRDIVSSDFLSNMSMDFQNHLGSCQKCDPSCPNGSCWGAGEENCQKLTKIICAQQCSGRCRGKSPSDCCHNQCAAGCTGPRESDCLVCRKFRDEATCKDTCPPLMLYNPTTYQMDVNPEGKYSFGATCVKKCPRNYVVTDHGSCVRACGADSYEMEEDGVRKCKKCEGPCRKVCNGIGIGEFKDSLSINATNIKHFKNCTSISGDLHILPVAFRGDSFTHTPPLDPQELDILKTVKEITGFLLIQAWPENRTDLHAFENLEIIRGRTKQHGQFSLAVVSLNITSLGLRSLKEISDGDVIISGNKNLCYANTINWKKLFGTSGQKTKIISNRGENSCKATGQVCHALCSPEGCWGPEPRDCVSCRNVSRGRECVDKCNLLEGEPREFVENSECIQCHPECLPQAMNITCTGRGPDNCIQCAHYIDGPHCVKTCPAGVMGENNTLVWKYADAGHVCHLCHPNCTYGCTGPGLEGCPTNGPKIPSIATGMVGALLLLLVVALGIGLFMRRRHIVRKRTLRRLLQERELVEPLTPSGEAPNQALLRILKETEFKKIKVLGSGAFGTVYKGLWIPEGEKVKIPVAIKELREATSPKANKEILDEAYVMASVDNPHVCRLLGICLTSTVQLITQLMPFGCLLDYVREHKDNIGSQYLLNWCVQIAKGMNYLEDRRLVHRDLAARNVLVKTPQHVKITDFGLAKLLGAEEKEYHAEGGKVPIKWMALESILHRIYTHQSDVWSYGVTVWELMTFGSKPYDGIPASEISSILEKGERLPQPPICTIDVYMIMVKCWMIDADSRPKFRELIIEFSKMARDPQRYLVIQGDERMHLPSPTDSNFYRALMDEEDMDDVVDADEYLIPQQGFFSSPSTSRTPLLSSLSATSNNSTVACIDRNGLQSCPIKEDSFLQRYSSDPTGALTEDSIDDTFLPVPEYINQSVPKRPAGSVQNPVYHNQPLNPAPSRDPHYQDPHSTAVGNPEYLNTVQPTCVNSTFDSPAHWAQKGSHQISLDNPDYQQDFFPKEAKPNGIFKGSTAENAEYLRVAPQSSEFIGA

| SMILES | IC50 [µM] |
| --- | --- |
| C=CC(=O)N1CCc2c(sc3ncnc(N[C@H](COCc4cccc([N+](=O)[O-])c4)c4ccccc4)c23)C1 | 0.001 to 0.099 |
| CN(C)C/C=C/C(=O)N1CCc2c(sc3ncnc(Nc4ccc(F)c(Cl)c4)c23)C1 | 0.001 to 0.099 |
| C=CC(=O)N1CCc2c(sc3ncnc(N[C@H](COCc4cccc(C)c4)c4ccccc4)c23)C1 | 0.001 to 0.099 |
| C[C@@H](Nc1ncnc2sc3c(c12)CCN(C(=O)/C=C/CNC1CC1)C3)c1ccccc1 | 0.001 to 0.099 |
| COc1cccc(COC[C@@H](Nc2ncnc3sc4c(c23)CCN(C(=O)/C=C/CN(C)C)C4)c2ccccc2)c1 | 0.001 to 0.099 |
| C=CC(=O)N1CCc2c(sc3ncnc(N[C@H](CO)Cc4ccccc4)c23)C1 | 0.301 to 0.999 |
| C=CS(=O)(=O)N1CCc2c(sc3ncnc(N[C@H](CO)c4ccccc4)c23)C1 | 0.1 to 0.3 |
| C=CC(=O)N1CCc2c(sc3ncnc(N[C@H](COCc4ccc(C(F)(F)F)cc4)c4ccccc4)c23)C1 | 0.1 to 0.3 |
| CN1CCN(C/C=C/C(=O)N2CCc3c(sc4ncnc(N[C@H](CO)c5ccccc5)c34)C2)CC1 | 0.001 to 0.099 |
| C=CC(=O)N1CCc2c(sc3ncnc(N[C@H](COC)c4ccccc4)c23)C1 | 0.001 to 0.099 |
| CN(C)C/C=C/C(=O)N1CCc2c(sc3ncnc(N[C@H](COCc4cccc(F)c4)c4ccccc4)c23)C1 | 0.001 to 0.099 |
| CN(C)C/C=C/C(=O)N1CCc2c(sc3ncnc(N[C@H](COCc4ccccc4)c4ccccc4)c23)C1 | 0.001 to 0.099 |
| CC[C@@H](Nc1ncnc2sc3c(c12)CCN(C(=O)/C=C/CN(CC)CC)C3)c1ccccc1 | 0.001 to 0.099 |
| C=CC(=O)Nc1cccc(-c2c(-c3ccccc3)oc3ncnc(N[C@H](C)c4ccccc4)c23)c1 | 0.001 to 0.099 |
| C=CC(=O)N1CCc2c(sc3ncnc(N[C@H](C)c4ccccc4)c23)C1 | 0.001 to 0.099 |
| C[C@@H](Nc1ncnc2sc3c(c12)CCN(C(=O)/C=C/CN(C)C)C3)c1ccccc1 | 0.001 to 0.099 |
| C=CC(=O)N1CCc2c(sc3ncnc(N[C@H](CO)c4ccccc4)c23)C1 | 0.001 to 0.099 |

The compounds below were run against EGFR (human), P00533 [WT]. Settings: not given.
EGFR (human), P00533 [WT], sequence (P00533 whole entry, looked up): as above

| SMILES | IC50 [µM] |
| --- | --- |
| C=CC(=O)N1CCc2c(sc3ncnc(N[C@H](COCc4cccc([N+](=O)[O-])c4)c4ccccc4)c23)C1 | < 0.059 |
| CN(C)C/C=C/C(=O)N1CCc2c(sc3ncnc(Nc4ccc(F)c(Cl)c4)c23)C1 | < 0.059 |
| C=CC(=O)N1CCc2c(sc3ncnc(N[C@H](COCc4cccc(C)c4)c4ccccc4)c23)C1 | < 0.059 |
| C[C@@H](Nc1ncnc2sc3c(c12)CCN(C(=O)/C=C/CNC1CC1)C3)c1ccccc1 | < 0.059 |
| COc1cccc(COC[C@@H](Nc2ncnc3sc4c(c23)CCN(C(=O)/C=C/CN(C)C)C4)c2ccccc2)c1 | < 0.059 |
| C=CC(=O)N1CCc2c(sc3ncnc(N[C@H](CO)Cc4ccccc4)c23)C1 | < 0.059 |
| C=CS(=O)(=O)N1CCc2c(sc3ncnc(N[C@H](CO)c4ccccc4)c23)C1 | 0.06 to 0.1 |
| C=CC(=O)N1CCc2c(sc3ncnc(N[C@H](COCc4ccc(C(F)(F)F)cc4)c4ccccc4)c23)C1 | < 0.059 |
| CN1CCN(C/C=C/C(=O)N2CCc3c(sc4ncnc(N[C@H](CO)c5ccccc5)c34)C2)CC1 | < 0.059 |
| C=CC(=O)N1CCc2c(sc3ncnc(N[C@H](COC)c4ccccc4)c23)C1 | < 0.059 |
| CN(C)C/C=C/C(=O)N1CCc2c(sc3ncnc(N[C@H](COCc4cccc(F)c4)c4ccccc4)c23)C1 | < 0.059 |
| CN(C)C/C=C/C(=O)N1CCc2c(sc3ncnc(N[C@H](COCc4ccccc4)c4ccccc4)c23)C1 | < 0.059 |
| CC[C@@H](Nc1ncnc2sc3c(c12)CCN(C(=O)/C=C/CN(CC)CC)C3)c1ccccc1 | < 0.059 |
| C=CC(=O)Nc1cccc(-c2c(-c3ccccc3)oc3ncnc(N[C@H](C)c4ccccc4)c23)c1 | 0.101 to 0.9 |
| C=CC(=O)N1CCc2c(sc3ncnc(N[C@H](C)c4ccccc4)c23)C1 | < 0.059 |
| C[C@@H](Nc1ncnc2sc3c(c12)CCN(C(=O)/C=C/CN(C)C)C3)c1ccccc1 | < 0.059 |
| C=CC(=O)N1CCc2c(sc3ncnc(N[C@H](CO)c4ccccc4)c23)C1 | < 0.059 |

What follows are compounds tested against EGFR (human), P00533 [Inhibition of EGFR(L858RT/790M) Kinase Activity]. Settings: not given.
EGFR (human), P00533 [Inhibition of EGFR(L858RT/790M) Kinase Activity], sequence (P00533 whole entry, looked up, change not shown): as the sequence (P00533 whole entry, looked up) above

| SMILES | IC50 [µM] |
| --- | --- |
| C=CC(=O)N1CCc2c(sc3ncnc(N[C@H](COCc4cccc([N+](=O)[O-])c4)c4ccccc4)c23)C1 | 0.01 to 0.499 |
| CN(C)C/C=C/C(=O)N1CCc2c(sc3ncnc(Nc4ccc(F)c(Cl)c4)c23)C1 | 0.01 to 0.499 |
| C=CC(=O)N1CCc2c(sc3ncnc(N[C@H](COCc4cccc(C)c4)c4ccccc4)c23)C1 | 0.01 to 0.499 |
| C[C@@H](Nc1ncnc2sc3c(c12)CCN(C(=O)/C=C/CNC1CC1)C3)c1ccccc1 | 0.5 to 2.5 |
| COc1cccc(COC[C@@H](Nc2ncnc3sc4c(c23)CCN(C(=O)/C=C/CN(C)C)C4)c2ccccc2)c1 | 0.5 to 2.5 |
| C=CC(=O)N1CCc2c(sc3ncnc(N[C@H](CO)Cc4ccccc4)c23)C1 | 0.5 to 2.5 |
| C=CS(=O)(=O)N1CCc2c(sc3ncnc(N[C@H](CO)c4ccccc4)c23)C1 | 0.5 to 2.5 |
| C=CC(=O)N1CCc2c(sc3ncnc(N[C@H](COCc4ccc(C(F)(F)F)cc4)c4ccccc4)c23)C1 | 0.01 to 0.499 |
| CN1CCN(C/C=C/C(=O)N2CCc3c(sc4ncnc(N[C@H](CO)c5ccccc5)c34)C2)CC1 | 0.5 to 2.5 |
| C=CC(=O)N1CCc2c(sc3ncnc(N[C@H](COC)c4ccccc4)c23)C1 | 0.01 to 0.499 |
| CN(C)C/C=C/C(=O)N1CCc2c(sc3ncnc(N[C@H](COCc4cccc(F)c4)c4ccccc4)c23)C1 | 0.01 to 0.499 |
| CN(C)C/C=C/C(=O)N1CCc2c(sc3ncnc(N[C@H](COCc4ccccc4)c4ccccc4)c23)C1 | 0.5 to 2.5 |
| CC[C@@H](Nc1ncnc2sc3c(c12)CCN(C(=O)/C=C/CN(CC)CC)C3)c1ccccc1 | 0.5 to 2.5 |
| C=CC(=O)Nc1cccc(-c2c(-c3ccccc3)oc3ncnc(N[C@H](C)c4ccccc4)c23)c1 | 0.5 to 2.5 |
| C=CC(=O)N1CCc2c(sc3ncnc(N[C@H](C)c4ccccc4)c23)C1 | 0.5 to 2.5 |
| C[C@@H](Nc1ncnc2sc3c(c12)CCN(C(=O)/C=C/CN(C)C)C3)c1ccccc1 | 0.5 to 2.5 |
| C=CC(=O)N1CCc2c(sc3ncnc(N[C@H](CO)c4ccccc4)c23)C1 | 0.01 to 0.499 |

Source: the Kinase Knowledgebase extract (Sharma et al. 2016)
